The source of these data is patent US20230024991A1, “PRODRUGS OF ACYL CARNITINES” (ATAI Life Sciences AG, priority 2021, published 2023).

Series [1] in a line: Determination of plasma half life, rat plasma. In kind it is in vitro ADME. The conditions noted are these: pH 7.4, 37° C. (Table 4), read-out: Mean t1/2. The method, then: (§1) Human, rat, and dog plasma were dialyzed against PBS buffer, pH 7.4 using Thermo Slide-A-Lyzer™ G2 Dialysis Cassettes for 24 hours at 4° C. prior to the experiment.
(§2) The assay was carried out in 96-well microtiter plates. Prodrugs and the reference compound (propantheline) at a final concentration of 1 μM were incubated separately in singlet at 37° C. with mouse, rat, dog, monkey or human plasma for 0, 30, 60, 120, 240, and 1440 min. At the end of each incubation time point, 300 μL of the quenching solutions (50% acetonitrile, 50% methanol, 0.05% formic acid) containing the internal standards (bucetin and d3-carnitine) was added to each well. The incubation plates were sealed, vortexed, and centrifuged at 10° C. for 15 minutes at 4000 rpm. The supernatant was transferred to fresh plates for LC/MS/MS analysis of the test compounds.
(§3) All samples were analyzed by LC/MS/MS using an AB Sciex API 4000 instrument (AB Sciex LLC, Framingham, Mass.), coupled to a Shimadzu LC-20AD LC Pump system (Shimadzu North America, Columbia, Md.). […]
(§4) The extent of metabolism was calculated based on the disappearance of prodrugs, compared to their initial concentration. The initial rates of clearance of prodrugs were calculated using linear regression plot of semi-log % remaining of prodrugs versus time. […]

Series [2] in a line: Determination of plasma half life, human plasma. In kind it is in vitro ADME. The conditions noted are these: 37° C. (Table 1), read-out: Human Mean t1/2. The method, then:
as §1, §2, §3, §4

Series [3] can be described thus: Determination of plasma half life, dog plasma. In kind it is in vitro ADME. Conditions: pH 7.4, 37° C. (Table 4). As to the method: as §1, §2, §3, §4
The conditions of series [4]: cited from earlier work.
For series [5] the following is noted: normal baseline conditions; cited from earlier work.

On to `CCOC(=O)C[C@H](C[N+](C)(C)C)OC(=O)CC` [Compound 3, (R)-4-ethoxy-N,N,N-trimethyl-4-oxo-2-(propionyloxy)butan-1-aminium chloride], for which the half-life at 1 μM in series [1] turned out to be 527 min; in series [2], 550 min; in series [3], 1360 min.
The corresponding values for `CCCCC(=O)O[C@H](CC(=O)OCC)C[N+](C)(C)C` [Compound 4, (R)-4-ethoxy-N,N,N-trimethyl-4-oxo-2-(pentanoyloxy)butan-1-aminium chloride] are 260 min, 55.6 min and 702 min.
`C[N+](C)(C)C[C@H](O)CC(=O)[O-]` [L-carnitine]: in series [4] (dietary, depends on the amount in the meal), the “bioavailability of dietary L-carnitine” value is 54-87%. For the same compound, the bioavailability in series [4] (oral administration of large amounts of exogenous carnitine (1-6 g)) was 5-18%. Further, the “tubular reabsorption in the kidney” value in series [5] is on record as “about 99%”.
